Source: patent US9828350B2, “5,6-dihydro-2H-[1,4]oxazin-3-yl-amine derivatives useful as inhibitors of beta-secretase (BACE)” (Janssen Pharmaceutica NV, priority 2010, dated 2017)

Experiments:
[1] = tested on: Abeta 1-42; assay: Cellular αLisa assay in SKNBE2 cells, Abeta 1-42; assay type: cell-based, human; conditions: incubated for 18 hours; for IC50: Homo sapiens, SKNBE2, 18 h, read-out: Cellular αLisa assay in SKNBE2 cells Abeta 42 pIC50 (converted)
Procedure, shortened: (§1)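 Human neuroblastoma SKNBE2 cells expressing wild-type hAPP695 were incubated with compound for 18 hours. Secreted Abeta total and Abeta 1-42 in medium were quantified by sandwich αLisa: biotinylated AbN/25 on streptavidin donor beads with Ab4G8 (total) or cAb42/26 (1-42) acceptor beads. Light emission read after 1 hour (ex 650 nm, em 615 nm).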

[2] = target: recombinant BACE1 protein (Homo sapiens, UniProt P56817); assay: Biochemical FRET based assay; conditions: recombinant BACE1 1 μg/ml, 120 minutes at room temperature, pH 5.0; for IC50: read-out: Biochemical FRET based assay pIC50 (converted)
Procedure, shortened: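 Recombinant BACE1 (1 μg/ml final) was incubated 120 minutes at room temperature with […] Mca/Dnp-labelled 13-mer APP Swedish-mutant peptide in 40 mM citrate pH 5.0, 0.04% PEG, 4% DMSO, with or without compound. Cleavage was measured as fluorescence (ex 320/em 405 nm), given as RFU difference between T120 and T0.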

[3] = tested on: Abeta total; assay: Cellular αLisa assay in SKNBE2 cells, Abeta total; assay type: cell-based, human; conditions: incubated for 18 hours; for IC50: Homo sapiens, SKNBE2, 18 h, read-out: Cellular αLisa assay in SKNBE2 cells Abetatotal pIC50 (converted)
Procedure, shortened: as §1

recombinant BACE1 protein, sequence (P56817 46-501): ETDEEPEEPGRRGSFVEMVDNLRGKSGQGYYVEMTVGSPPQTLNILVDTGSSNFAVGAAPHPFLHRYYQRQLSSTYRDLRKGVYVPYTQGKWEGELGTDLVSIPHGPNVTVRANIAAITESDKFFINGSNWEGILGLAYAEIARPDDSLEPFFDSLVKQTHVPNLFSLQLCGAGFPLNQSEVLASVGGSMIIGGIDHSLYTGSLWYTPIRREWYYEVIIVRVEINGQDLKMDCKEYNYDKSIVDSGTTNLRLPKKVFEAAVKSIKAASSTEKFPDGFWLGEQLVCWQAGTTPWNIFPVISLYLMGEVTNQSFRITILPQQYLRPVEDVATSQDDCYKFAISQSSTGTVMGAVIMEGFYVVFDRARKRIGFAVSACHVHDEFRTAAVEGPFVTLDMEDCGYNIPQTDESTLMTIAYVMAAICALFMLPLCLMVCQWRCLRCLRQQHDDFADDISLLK

Row | IC50 [1] | IC50 [2] | melting point | IC50 [3] | Cellular αLisa assay in SKNBE2 cells Abeta 42 pIC50 [1] | Cellular αLisa assay in SKNBE2 cells Abetatotal pIC50 [3] | Biochemical FRET based assay pIC50 [2] | SMILES
1 | 0.0251 µM | 0.0417 µM | 123.8 °C | 0.0251 µM | – | – | – | COc1ccc(C(=O)Nc2ccc(F)c([C@@]3(C)N=C(N)CO[C@@]3(F)C(F)(F)F)c2)nc1 [Compound 305]
2 | 0.0141 µM | 0.0447 µM | 181.79 °C | 0.0145 µM | – | – | – | N#Cc1ccc(C(=O)Nc2ccc(F)c([C@@]3(C4CC4)N=C(N)CO[C@H]3C(F)(F)F)c2)nc1 [Compound 229, (2R,3R)—N-{3-[5-amino-3-cyclopropyl-2-(trifluoromethyl)-3,6-dihydro-2H-1,4-oxazin-3-yl]-4-fluorophenyl}-5-cyanopyridine-2-carboxamide]
3 | 0.0115 µM | 0.0891 µM | 161.5 °C | 0.0132 µM | – | – | – | NC1=NC(c2cccc(NC(=O)c3ccc(Cl)cn3)c2)(C2CC2)COC1 (racemic) [Compound 153, rac-N-[3-(5-Amino-3-cyclopropyl-3,6-dihydro-2H-1,4-oxazin-3-yl)phenyl]-5-chloropyridine-2-carboxamide]
4 | 0.0135 µM | 0.0263 µM | 200.16 °C | 0.0135 µM | – | – | – | C[C@]1(c2cc(NC(=O)c3ncc(Cl)cc3Cl)ccc2F)N=C(N)CO[C@@]1(F)C(F)(F)F [Compound 181]
5 | – | 10.2 µM | 189.64 °C | – | 5.92 | 5.95 | – | CC1(c2cccc(NC(=O)c3ccncn3)c2)N=C(N)COC1(F)C(F)(F)F (single isomer, unassigned) [Compound 187]
6 | 0.0832 µM | 0.055 µM | 132.03 °C | 0.0575 µM | – | – | – | Cc1cc(Br)cnc1C(=O)Nc1ccc(F)c([C@@]2(C3CC3)N=C(N)CO[C@@H]2F)c1 [Compound 314]
7 | 0.513 µM | 5.13 µM | 155.6 °C | 0.457 µM | – | – | – | CC1(c2cccc(NC(=O)c3ncccc3F)c2)COCC(N)=N1 (racemic) [Compound 6, rac-N-[3-(5-amino-3-methyl-3,6-dihydro-2H-1,4-oxazin-3-yl)phenyl]-3-fluoropyridine-2-carboxamide]
8 | – | 20.9 µM | 204.3 °C | – | 5.87 | 5.73 | – | CC1(c2cccc(-c3cncnc3)c2)N=C(N)COC1F (stereo not shown) [Compound 99]
9 | 0.2 µM | 1.55 µM | 196.9 °C | 0.224 µM | – | – | – | COc1cncc(-c2ccc(F)c(C3(C)N=C(N)COC3C(F)(F)F)c2)c1 (stereo not shown) [Compound 105]
10 | – | 1.91 µM | 116.4 °C | – | 6.47 | 6.48 | – | CC1(c2cc(NC(=O)c3ncc(Cl)cc3F)ccc2F)N=C(N)COC1F (single isomer, unassigned) [Compound 130]
11 | 0.55 µM | 2.04 µM | 177.94 °C | 0.468 µM | – | – | – | C[C@]1(c2cc(-c3cncc(C#N)c3)c(F)cc2F)N=C(N)CO[C@@H]1C(F)(F)F [Compound 317]
12 | – | 0.513 µM | 180.17 °C | – | 6.74 | 6.81 | – | CC1(c2cccc(NC(=O)c3ncc(Cl)cc3F)c2)N=C(N)COC1(F)C(F)(F)F (single isomer, unassigned) [Compound 172]
13 | > 10 µM | > 30.2 µM | 186.2 °C | > 10 µM | – | – | – | C[C@]1(c2cc(-c3cncnc3)c(F)cc2F)N=C(N)CO[C@@H]1F (single isomer, unassigned) [Compound 148, (R*,R*)-5-(2,4-difluoro-5-pyrimidin-5-ylphenyl)-6-fluoro-5-methyl-5,6-dihydro-2H-1,4-oxazin-3-amine]
14 | > 10 µM | 6.46 µM | 145.3 °C | > 10 µM | – | – | – | C[C@]1(c2cc(-c3cncc(Cl)c3)c(F)cc2F)N=C(N)CO[C@]1(F)C(F)(F)F [Compound 212]
15 | 0.17 µM | 1 µM | 175.32 °C | 0.166 µM | – | – | – | CC1(c2cc(NC(=O)c3ccc(Cl)cn3)cc(C(F)(F)F)c2)COCC(N)=N1 (stereo not shown) [Compound 197]
16 | – | > 30.2 µM | 179.18 °C | – | <5 | <5 | – | CC1(c2cccc(NC(=O)c3ncc(Cl)cc3F)c2)N=C(N)COC1(F)C(F)(F)F (single isomer, unassigned) [Compound 174]
17 | 2.19 µM | 1.41 µM | 62 °C | 1.74 µM | – | – | – | C[C@]1(c2cc(-c3cncnc3)c(F)cc2F)N=C(N)CO[C@@]1(F)C(F)(F)F [Compound 211]

Row | IC50 [1] | IC50 [2] | melting point | IC50 [3] | Cellular αLisa assay in SKNBE2 cells Abeta 42 pIC50 [1] | Cellular αLisa assay in SKNBE2 cells Abetatotal pIC50 [3] | Biochemical FRET based assay pIC50 [2] | SMILES
18 | 0.724 µM | 1.91 µM | 197 °C | 0.617 µM | – | – | – | CC1(c2cccc(-c3cc(Cl)cc(Cl)c3)c2)COCC(N)=N1 (racemic) [Compound 2, rac-5-(3′,5′-dichlorobiphenyl-3-yl)-5-methyl-5,6-dihydro-2H-1,4-oxazin-3-amine]
19 | 0.871 µM | 6.46 µM | 160.8 °C | 0.851 µM | – | – | – | C[C@@]1(c2cccc(NC(=O)c3ccc(Cl)cn3)c2)N=C(N)CO[C@H]1F (single isomer, unassigned) [Compound 85, (S*,S*)—N-[3-(5-amino-2-fluoro-3-methyl-3,6-dihydro-2H-1,4-oxazin-3-yl)phenyl]-5-chloropyridine-2-carboxamide]
20 | 4.07 µM | 0.437 µM | 70.1 °C | 3.72 µM | – | – | – | C[C@]1(c2cc(-c3cncc(Cl)c3)c(F)cc2F)N=C(N)CO[C@@]1(F)C(F)(F)F [Compound 213]
21 | – | > 30.2 µM | 115.4 °C | – | 5.43 | 5.34 | – | CC1(c2cccc(-c3cncnc3)c2)N=C(N)COC1F (single isomer, unassigned) [Compound 94]
22 | – | 1.82 µM | 204.89 °C | – | 5.73 | 5.76 | – | CCC1(c2cc(-c3cncnc3)ccc2F)N=C(N)COC1(F)C(F)(F)F (stereo not shown) [Compound 303]
23 | – | 0.0813 µM | 196.44 °C | – | 7.14 | 7.17 | – | CCC1(c2cc(NC(=O)c3cnc(OC)cn3)ccc2F)N=C(N)COC1(F)C(F)(F)F (stereo not shown) [Compound 301]
24 | – | – | 139.23 °C | – | 6.46 | 6.47 | 5.81 | COc1cncc(-c2cccc(C3(C)N=C(N)COC3F)c2)c1 (stereo not shown) [Compound 87]
25 | – | > 30.2 µM | 189.29 °C | – | <5 | <5 | – | CC1(c2cccc(NC(=O)c3ccncn3)c2)N=C(N)COC1(F)C(F)(F)F (single isomer, unassigned) [Compound 189]
26 | – | 9.77 µM | 227.7 °C | – | 5.46 | 5.46 | – | CC1(c2cc(-c3cncnc3)ccc2F)N=C(N)COC1F (single isomer, unassigned) [Compound 75]
27 | 0.398 µM | 0.447 µM | 141.4 °C | 0.347 µM | – | – | – | C[C@]1(c2cc(-c3cncc(Cl)c3)c(F)cc2F)N=C(N)CO[C@H]1C(F)(F)F [Compound 255]
28 | 0.024 µM | 0.17 µM | 196.4 °C | 0.0214 µM | – | – | – | COc1cnc(C(=O)Nc2ccc(F)c([C@]3(C4CC4)COCC(N)=N3)c2)cn1 [Compound 299]
29 | 0.363 µM | 0.407 µM | 198.43 °C | 0.363 µM | – | – | – | COc1cnc(C(=O)Nc2ccc(F)c([C@@]3(C)N=C(N)CO[C@]3(F)C(F)(F)F)c2)cn1 [Compound 184]
30 | 0.631 µM | 2.63 µM | 213.1 °C | 0.646 µM | – | – | – | CC1(c2cc(-c3cncnc3)c(F)cc2F)COC2(CC2)C(N)=N1 (stereo not shown) [Compound 72]
31 | 3.16 µM | 3.89 µM | 202.5 °C | 3.16 µM | – | – | – | COc1cncc(-c2cccc(C3(C(F)(F)F)COCC(N)=N3)c2)c1 (racemic) [Compound 152, rac-5-[3-(5-methoxypyridin-3-yl)phenyl]-5-(trifluoromethyl)-5,6-dihydro-2H-1,4-oxazin-3-amine]
32 | 0.011 µM | 0.0269 µM | 185.6 °C | 0.01 µM | – | – | – | COc1ccc(C(=O)Nc2ccc(F)c([C@@]3(C)N=C(N)CO[C@@H]3F)c2)nc1 [Compound 208]
33 | 0.347 µM | 0.851 µM | 101.3 °C | 0.316 µM | – | – | – | C[C@]1(c2cc(-c3cncnc3)c(F)cc2F)N=C(N)CO[C@H]1C(F)(F)F [Compound 254]
34 | 3.89 µM | 22.9 µM | 195.3 °C | 4.47 µM | – | – | – | CC1(c2cc(-c3cncnc3)c(F)cc2F)N=C(N)COC1F (stereo not shown) [Compound 84]
